Reference: patent US7271239B2, “D-isomers of antimicrobial peptide” (The Research Foundation of State University of New York, priority 2004, dated 2007)
Converted amounts (≈) assume the structure as drawn. Like-named read-outs stand apart in the source and are kept apart here. Where a SMILES comes first, the peptide text is derived from it.

How the values were obtained:
[1] = system: S. mutans GS-5 biofilm; format: cell-based, Streptococcus mutans
Protocol: FIG. 11. Effect of peptides on the biofilm formation of S. mutans. The bacterial cells (5×10^5 cfu ml^−1) were inoculated in 96-well microtiter plate containing 25% BHIS medium with different concentration of each agent. Culture without agent was used as no treatment control. After incubation at 37° C. for 24 h, absorbance at 595 nm was recorded to assess the cell growth. Biofilm assay was performed by discarding the supernatants, washing with PBS, fixing with methanol, and staining with CV. The absorbance at 570 nm was recorded to assess the amount of biofilm. The activity was expressed as % of control. Data represents mean and SD of two independent tests with duplicates for each. Empty bar: growth, solid bar: biofilm.
The effect of the peptides on S. mutans in biofilm formation was examined by the microdilution method. This method is similar to the MIC assay for planktonic cells. Two-fold serial dilutions of each peptide were prepared in wells of polystyrene microtiter plates (Microtest tissue culture plate, 96 well, Falcon, Becton Dickinson and Company, N.J.) containing 25% BHI medium supplemented with 1% sucrose (BHIS) at a volume of 200 μl per well. The final concentration of the peptide ranged from 0.78 to 100 μM for each peptide. Chlorhexidine (CHX, 0.078 to 10 μg/mL) was used as the positive control, the medium without drug as the non-treated control, and the medium alone as the blank control. The cells suspension of S. mutans GS-5 was prepared as describe in MIC assay and 20 μl aliquot (final concentration of cells 5×10^5 CFU/mL) was inoculated to the wells of polystyrene microtiter plates. After incubation at 37° C. for 20 h, the culture supernatants from each well were decanted and planktonic cells were removed by washing with PBS, pH 7.2. The biofilm was fixed with methanol for 15 min and then air dried at room temperature. The biofilm was then stained with 0.1% (wt/vol) crystal violet (Sigma) for 5 min. and rinsed thoroughly with water until the control wells appeared colorless. Biofilm formation was quantified by the addition of 200 μl of 95% ethanol to each crystal violet-stained well. The plate was rocked at room temperature for 30 min and the absorbance at 595 nm (A595 nm) was determined with a microplate reader (BioRad Model 3550 Microplate Reader). Percentage of inhibition was calculated with the equation: (1−A595 nm of the test/A595nm of non-treated control)×100.

[2] = system: E. coli HB101; assay: microbe, parasite or virus in culture; format: cell-based, Escherichia coli
From the text: (§1) The bacteria used in this study included Streptococcus mutans ATCC10449, Streptococcus mutans AU 159, Streptococcus mutans GS-5, Streptococcus mutans GS-5 mutant (^gtf BCD), Streptococcus gordonii Challis, Porphyromonas gingivalis W50, Porphyromonas gingivalis 381, A. actinomycetemcomitans NCTC 9710, Pseudomonas aeruginosa ATCC 17648, and Escherichia coli HB101. One quarter strength (25%) of brain heart infusion broth (BHI, DIFCO Laboratories, Detroit, Mich.) was used for the growth of S. mutans, S. gordonii, A. actinomycetemcomitans, Ps. aeruginosa, and E. coli. For growth of P. gingivalis, tryptic soy broth-yeast extract medium (TSBY, DIFCO Laboratories, Detroit, Mich.) supplemented with cysteine hydrochloride (0.05%), menadione (0.02 μg/ml), hemin (5 μg/ml), and potassium nitrate (0.02%) was used. All bacteria were cultured at 37° C.; Ps. aeruginosa and E. coli were grown aerobically, and the other bacteria, anaerobically. To prepare bacterial cell suspension for antibacterial activity assays, each overnight culture was harvested by centrifuge (3783 g, 10 min), washed once with 10 mM sodium phosphate-buffered saline (PBS, pH 7.2), resuspended in PBS and adjusted to a concentration of 1×10^6 cells/mL.
(§2) MICs of the peptides were determined by broth microdilution method as previously described (5). Briefly, two-fold serial dilutions of each peptide were prepared with 25% BHI medium at a volume of 200 μl per well in 96-well flat-bottom microtiter plates (Costar, Cambridge, Mass.). The final concentration of the peptides ranged from 0.78 to 100 μM, and chlorhexidine (CHX), used as a positive control, from 20 to 0.16 μM (10 to 0.078 μg/mL). The microtiter plate was inoculated with bacterial cell suspension with final concentration of 5×10^6 CFU/mL for P. gingivalis and 5×10^5 CFU/mL for the other bacterial species. After incubation at 37° C. for 48 h, the absorbance was measured at 595 nm by using a microplate reader (Model 3550, Bio-Rad, Japan) to assess the cell growth. […] The MIC value represents the median of at least three independent experiments. The minimal bactericidal concentration (MBC) was determined as follows. Aliquot (100 μl) of cell suspension was taken from two wells above MIC, centrifuged, and washed three times with PBS. Then each cell suspension was plated on TSBY agar plate, and bacterial cells were enumerated after incubation at 37° C. for 48 h. The MBC was defined as the lowest concentration of the peptide at which more than 99.9% of cells were killed compared to non-treated control.

[3] = system: S. gordonii Challis; assay: microbe, parasite or virus in culture; format: cell-based, Streptococcus gordonii
From the text: as §1, §2

[4] = system: S. mutans GS-5 1-day biofilm; format: cell-based, Streptococcus mutans
Protocol: FIG. 12. Effect of peptides on 1-day biofilm of S. mutans. One-day mature biofilm was prepared as described above. BHI medium supplemented with 1% sucrose (BHIS) with peptides, prepared in another microtiter plate, was then transferred to the biofilm plate. After further incubation at 37° C. for 24 h, the biofilm was fixed, stained, and quantified as describe above. Data represents mean and SD of two independent tests performed in duplicated. Empty bar: growth, solid bar: biofilm.
To examine the effects of the peptides on 1-day mature biofilm, S. mutans GS-5 was inoculated into the wells of another polystyrene microtiter plate containing BHIS at a volume of 200 μl per well. After incubation at 37° C. for 24 h, the culture supernatants from each well were decanted and planktonic cells were removed by washing with PBS. BHIS containing 0.78 to 100 μM peptides, prepared in another microtiter plate, was then transferred to the 1-day biofilm plate, and further incubated at 37° C. for one day. The biofilm was fixed, stained, and quantified as describe above.

[5] = system: S. mutans; assay: microbe, parasite or virus in culture; conditions: median of four strains
From the text: as §1, §2

[6] = system: P. gingivalis; assay: microbe, parasite or virus in culture; format: cell-based, Porphyromonas gingivalis
From the text: as §1, §2

[7] = system: S. mutans GS-5; assay: Time-kill assay; format: cell-based, Streptococcus mutans; conditions: after 4 h incubation, each agent at its MIC
Protocol: FIG. 10. Time-Killing curves for S. mutans. […] Control (▪), MUC7 12-mer-L (Δ), MUC7 12-mer-D (□), MUC7 20-mer (▴), Hsn5 12-mer (×), magainin II (●), chlorhexidine (◯).
For the peptides MUC7 12-mer-L, MUC7 12-mer-D, and MUC7 20-mer, time-kill kinetic studies against S. mutans were performed by the broth macrodilution method. S. mutans GS-5 (1×10^6 CFU/ml) and antibacterial agens (find concentrations of 12.5 μM for each peptide, and 2 μM for CHX; their MICs) were incubated in 25% BHI at 37° C. At the time of 0, 1, 2, 4, 8, and 24 h, samples were taken and viable counts determined as follows: The samples were serially diluted (10^−1 to 10^−4) in sterile 10 mM PBS (pH 7.2) and 50 μl aliquots were plated onto TSBY agar. The plates were incubated anaerobically at 37° C. for 48 h, followed by enumerating the CFU. Killing curves were constructed by plotting the log10 CFU per milliliter versus time over 24 h. All assays were done in duplicate on at least two occasions.

[8] = system: A. actinomycetemcomitans NCTC 9710; assay: microbe, parasite or virus in culture; format: cell-based
From the text: as §1, §2

[9] = system: Ps. aeruginosa ATCC 17648; assay: microbe, parasite or virus in culture; format: cell-based, Pseudomonas aeruginosa; conditions: ATCC 17648
From the text: as §1, §2

SMILES: CC[C@H](C)[C@H](NC(=O)[C@H](Cc1ccccc1)NC(=O)[C@@H]1CCCN1C(=O)[C@H](CCCCN)NC(=O)[C@H](CCC(N)=O)NC(=O)[C@H](Cc1c[nH]cn1)NC(=O)[C@H](C)NC(=O)[C@@H](N)CC(C)C)C(=O)N[C@@H](CCCNC(=N)N)C(=O)N[C@@H](CCCCN)C(=O)N[C@@H](CO)C(=O)N[C@@H](Cc1ccc(O)cc1)C(=O)N[C@@H](CCCCN)C(=O)N[C@@H](CS)C(=O)N[C@@H](CC(C)C)C(=O)N[C@@H](Cc1c[nH]cn1)C(=O)N[C@@H](CCCCN)C(=O)N[C@@H](CCCNC(=N)N)C(=O)N[C@@H](CS)C(=O)N[C@@H](CCCNC(=N)N)C(=O)O [MUC7 20-mer] (H-LAHQKPFIRKSYKCLHKRCR-OH; N-terminus and C-terminus assumed)
- MBIC50 [1]: 15.5 µg/mL
- MBIC50 ([1]; GS-5 biofilm, 24 h): 6.25 µM
- MBC (μM) [2]: 100.0 µM (≈ 251 µg/mL)
- MIC (μM) [2]: 100.0 µM (≈ 251 µg/mL)
- MBC (μM) [3]: 25.0 µM (≈ 62.8 µg/mL)
- MBC (μg/ml) [3]: 62.8 µg/mL (≈ 25 µM)
- MIC (μM) [3]: 12.5 µM (≈ 31.4 µg/mL)
- MIC (μg/ml) [3]: 31.4 µg/mL (≈ 12.5 µM)
- MBEC50 (μg/ml) [4]: 62 µg/mL
- MBEC50 (μM) ([4]; GS-5 1-day biofilm, 24 h): 25 µM
- eradication of 1-day developed biofilm ([4]; at or more than MBEC50): reduction of biofilm was observed
- MBC (μM) [5]: 12.5 µM (≈ 31.4 µg/mL)
- MBC (μg/ml) [5]: 31.4 µg/mL (≈ 12.5 µM)
- MIC (μM) [6]: >100 µM
- MIC (μg/ml) [6]: >251 µg/mL
- reduction of the viable counts of S. mutans [7]: 2 log10
- MBC (μg/ml) [8]: 251.3 µg/mL (≈ 100 µM)
- MIC (μg/ml) [8]: 251.3 µg/mL (≈ 100 µM)
- MBC (μM) ([8]; NCTC 9710): 100.0 µM (≈ 251 µg/mL)
- MIC (μM) ([8]; NCTC 9710): 100.0 µM (≈ 251 µg/mL)
- MBC (μM) [9]: >100 µM
- MBC (μg/ml) [9]: >251 µg/mL
- MIC (μM) [9]: >100 µM
- MIC (μg/ml) [9]: >251 µg/mL
